Laboratory results reported in patent US20110224079A1, “SPIROHETEROCYCLIC N-OXYAMIDES AS PESTICIDES” (SYNGENTA CROP PROTECTION LLC, priority 2008, published 2011).

Tests used:
[1] = tested on: Aphis Craccivora (cowpea aphid); test: Example B11: translaminar activity against Aphis craccivora on French bean leaves; type: in vivo; conditions: 120 h, upper leaf side painted, aphids on lower side, 5 days
Experimental: Translaminar Activity Against Aphis Craccivora (Cowpea Aphid)
French bean leaves (Phaseolus vulgaris) are infested with about 20 mixed age individuals on the lower leaf side using clip cages. 1 day after the infestation, the upper side of the leaves is treated with the test solution by painting. 5 days later, samples are checked for mortality.

[2] = tested on: Myzus persicae (green peach aphid); test: Example B1: activity against Myzus persicae, sprayed sunflower leaf discs (feeding/residual contact, preventive); conditions: foliar, 144 h, read-out: activity (mortality)
[3] = tested on: Myzus persicae (green peach aphid); test: Example B17: activity against Myzus persicae on sprayed pepper plants (feeding/residual contact); type: in vivo; conditions: 144 h, infested pepper plants sprayed, 6 days
[4] = tested on: Plutella xylostella (diamond back moth); test: Example B5: activity against Plutella xylostella, artificial diet in microtiter plate (larvicide, preventive); type: in vivo; conditions: 120 h, L2 larvae, 5 days, read-out: activity (larval mortality, antifeedant, growth regulation)
Experimental: Activity Against Plutella xylostella (Diamond Back Moth)
(Larvicide, Feeding/Residual Contact Activity, Preventive)
24-well microtiter plate (MTP) with artificial diet is treated with test solutions by pipetting. After drying, the MTP's are infested with larvae (L2)(10-15 per well). After an incubation period of 5 days, samples are checked for larval mortality, antifeedant and growth regulation.

[5] = tested on: Nilaparvata lugens (brown rice planthopper); test: Example B8: activity against Nilaparvata lugens, sprayed rice seedlings (larvicide, feeding/contact); conditions: in Oryza sativa, read-out: activity (mortality, growth regulation, effects on F1 generation)
[6] = tested on: cowpea aphid (Aphis craccivora); test: Example B14: insecticide seed treatment of sugarbeet seeds, infestation with cowpea aphid; type: in vivo; conditions: 0.3 mg a.i./seed, infested after 14 days, counted 7 days later
Experimental: Insecticide Seed Treatment
Sugarbeet seeds are treated with test compounds at various rates (mg a.i./seed). The seeds are sown into pots filled with soil. After placing the seeds on the soil surface they are further covered with soil. Before and during the bioassays, the plants are grown under optimal greenhouse conditions. After 14 days, the plants are infested with cowpea aphid (Aphis craccivora) by placing one infested pea seedling containing approximately 150 aphids of a population of mixed developmental stages onto each plant. Seven days after infestation, the number of aphids is counted per plant. Each treatment group is replicated 10 times. Each replicate contains 1 plant.

[7] = tested on: Myzus persicae (green peach aphid); test: Example B2: activity against Myzus persicae, pea seedling roots in test solution (systemic/feeding, curative); conditions: 144 h, read-out: activity (mortality)
[8] = tested on: Bemisia tabaci (tobacco white fly); test: Example B7: activity against Bemisia tabaci, sprayed bean plants (larvicide, contact/feeding); type: in vivo; conditions: 504 h, bean plants with N-2 nymphs sprayed, three weeks, read-out: activity (efficacy, number of emerged adults)
How it was run: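 After a 4-day egg-laying period and 7 further days, bean plants bearing hatched N-2 nymphs were sprayed with test solutions (2 replicates). Emerged adults were counted three weeks later; efficacy was derived by comparison with untreated samples.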

[9] = tested on: Myzus persicae (green peach aphid); test: Example B13: drench activity against Myzus persicae, pea seedlings in field soil; conditions: 168 h, read-out: drench activity (mortality)
[10] = tested on: Aonidiella Aurantii (red scale); test: Example B12: activity against Aonidiella aurantii, dipped potato tubers; type: in vivo; conditions: 6-8 weeks after application, read-out: activity (number of crawlers of the next generation)
Source text: Activity Against Aonidiella Aurantii (Red Scale)
Treatment of potato tubers by dipping the in the test solution. One day later, tubers are infested with about 50 crawlers. 6-8 weeks after application samples are checked for the number of crawlers of the next generation (compared to the non treated samples).

[11] = tested on: Frankliniella occidentalis (western flower thrips); test: Example B6: activity against Frankliniella occidentalis, bean leaf discs or bean plants; type: in vivo; conditions: foliar, 6 days (leaf discs) or 14 days (plants) after infestation, read-out: activity (reduction of treated population)
How it was run: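 Bean leaf discs on agar or whole bean plants sprayed with diluted test solutions, then infested with a mixed thrips population after drying. Population reduction versus untreated assessed 6 days (discs) or 14 days (plants) after infestation.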

[12] = tested on: Aphis Craccivora (cowpea aphid); test: Example B10: activity against Aphis craccivora, pea seedling roots in test solution (systemic/feeding); type: in vivo; conditions: 144 h, roots of infested pea seedlings in test solution, 6 days
Source text: (§1) Activity Against Aphis Craccivora (Cowpea Aphid)
(Mixed Population, Systemic/Feeding)

[13] = tested on: Aphis Craccivora (cowpea aphid); test: Example B9: activity against Aphis craccivora, sprayed pea seedlings (contact/feeding); type: in vivo; conditions: 144 h, infested pea seedlings sprayed, 6 days
Source text: as §1
(Mixed Population, Contact/Feeding)
6 days after treatment, samples are checked for mortality.

[14] = tested on: Tetranychus urticae (two-spotted spider mite); test: Example B4: activity against Tetranychus urticae, sprayed bean leaf discs (feeding/residual contact, preventive); conditions: foliar, 192 h, read-out: activity (egg, larval and adult mortality)
[15] = tested on: Aphis Craccivora (cowpea aphid); test: Example B16: activity against Aphis craccivora on broad bean plants, adjuvant effect, curative (EC050 spray); type: in vivo; conditions: 3 ppm, adjuvant (if any) 0.1% (v/v), 7 days after treatment
Experimental: One day after infestation, plants are treated with diluted test solutions of the compound formulated as EC050 in a spray chamber (4 replicates). Optionally, an adjuvant is added with 0.1% (v/v) to the spray solution. 7 days after treatment samples are checked for mortality. Efficacy was calculated with the aid of Abbott's formula.

Compound | mortality at 400 ppm [1] [%] | mortality at 400 ppm [2] [%] | mortality at 200 ppm [3] [%] | mortality at 400 ppm [4] [%] | mortality at 400 ppm [5] [%] | efficacy in the reduction of aphids compared to the untreated control plants [6] [%] | mortality at 400 ppm [7] [%] | pest or weed control at 200 ppm [8] [%] | mortality at 25 ppm [9] [%] | pest or weed control at 200 ppm [10] [%] | pest or weed control at 400 ppm [11] [%] | mortality at 400 ppm [12] [%] | mortality at 400 ppm [13] [%] | mortality at 400 ppm [14] [%] | Abbott's efficacy (%) against Aphis craccivora ([15]; Table B16a) [%] | Abbott's efficacy (%) against Aphis craccivora ([15]; Table B16b) [%]
COCON1C(=O)C(c2cc(C)ccc2C)=C(O)C12CCN(OC)CC2 [P2.2, 3-(2,5-dimethyl-phenyl)-4-hydroxy-8-methoxy-1-methoxymethoxy-1,8-diaza-spiro[4.5]dec-3-en-2-one] | > 80 | > 80 | ≥ 80 | > 80 | > 80 | 60 | > 80 | > 80 | > 80 |  |  |  |  |  |  | 
CCOC(=O)OC1=C(c2c(C)cc(C)cc2C)C(=O)N(OCC)C12CCN(OC)CC2 [P1.15] | > 80 | > 80 | ≥ 80 |  | > 80 |  | > 80 | > 80 | > 80 | > 80 | > 80 | > 80 | > 80 | > 80 | 3 | 11
